Experimental data published in patent US20090029992A1, “SUBSTITUTED PYRAZOLE COMPOUNDS” (priority 2007, published 2009).

How the values were obtained:
Assay type in all cases: biochemical
recombinant Aurora A = biological target: T1, recombinant Aurora A (Homo sapiens, UniProt O14965); experiment: Aurora A (Aurora 2) inhibition assay, Z'-Lyte kinase assay; settings: ATP 10 μM, 1 h
T1 construct: purchased Upstate, Lake Placid, N.Y
T1 sequence (O14965 1-403): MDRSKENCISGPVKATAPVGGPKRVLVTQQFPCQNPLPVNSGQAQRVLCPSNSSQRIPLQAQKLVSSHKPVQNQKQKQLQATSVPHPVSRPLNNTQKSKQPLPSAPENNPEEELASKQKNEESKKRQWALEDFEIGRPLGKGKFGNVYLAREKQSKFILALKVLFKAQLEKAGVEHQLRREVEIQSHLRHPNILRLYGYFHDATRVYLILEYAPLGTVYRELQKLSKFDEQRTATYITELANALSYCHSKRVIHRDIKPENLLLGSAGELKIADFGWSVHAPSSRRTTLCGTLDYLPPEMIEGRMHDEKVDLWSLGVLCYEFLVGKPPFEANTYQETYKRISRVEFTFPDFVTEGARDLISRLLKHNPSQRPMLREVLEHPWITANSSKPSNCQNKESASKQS
Summary of the method: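 Z'-Lyte FRET assay: Aurora A (200-500 ng/mL final), Ser/Thr 1 peptide (2 μM) and ATP (10 μM) in 50 mM HEPES pH 7.5, 10 mM MgCl2, 5 mM EGTA, 0.05% Brij-35, 2 mM DTT, 1 h at room temperature. Coumarin/fluorescein emission ratio converted to percent phosphorylation; dose-response curves plotted.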

[1] = biological target: T2, N-terminal His6-tagged recombinant human KDR, residues 790-end (Homo sapiens, UniProt P35968); experiment: KDR kinase inhibition assay (33P-ATP filter assay)
T2 construct: recombinant human KDR, residues 790-end; His6 (N); purchased Upstate USA Inc, 706 Forest Street, Charlottesville, Va
Summary of the method: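 Radiometric filter assay: reaction started with Mg acetate (10 mM)/[γ-33P]ATP mix, run 40 min at room temperature in 8 mM MOPS pH 7.0 with 0.2 mM EDTA, MBP substrate (0.33 mg/mL) and recombinant KDR 790-end (5-10 mU). Phosphate incorporation by scintillation counting of P30 filtermats, compared with uninhibited reactions.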

[2] = biological target: T3, N-terminal GST-tagged recombinant human Flt3, residues 564-end (Homo sapiens, UniProt P36888); experiment: Flt3 kinase inhibition assay (33P-ATP filter assay); settings: 40 minutes at room temperature
T3 construct: recombinant human Flt3, residues 564-end; GST (N); purchased Upstate USA Inc, 706 Forest Street, Charlottesville, Va
T3 sequence (P36888 564-993 limits assumed): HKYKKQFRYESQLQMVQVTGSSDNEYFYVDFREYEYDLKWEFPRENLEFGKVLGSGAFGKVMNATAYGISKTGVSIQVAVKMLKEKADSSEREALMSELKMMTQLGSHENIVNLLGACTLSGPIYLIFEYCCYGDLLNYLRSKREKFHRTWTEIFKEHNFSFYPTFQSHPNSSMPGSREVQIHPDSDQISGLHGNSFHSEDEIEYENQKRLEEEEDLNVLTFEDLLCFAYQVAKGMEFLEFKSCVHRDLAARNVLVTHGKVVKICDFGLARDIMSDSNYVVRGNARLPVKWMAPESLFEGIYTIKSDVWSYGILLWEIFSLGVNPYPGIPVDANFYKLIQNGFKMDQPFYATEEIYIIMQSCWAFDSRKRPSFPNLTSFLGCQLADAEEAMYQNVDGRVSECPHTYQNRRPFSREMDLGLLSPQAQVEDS
Summary of the method: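 Serial compound dilutions incubated 40 min at room temperature with 5-10 mU Flt3 kinase, 50 μM peptide substrate and [γ-33P]ATP/10 mM magnesium acetate, pH 7.0. Phosphoric acid stop, filter capture and scintillation counting; activity compared with uninhibited reactions.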

[3] = group with IC50 greater than 100 nM

T2 sequence (P35968 790-1356 limits assumed): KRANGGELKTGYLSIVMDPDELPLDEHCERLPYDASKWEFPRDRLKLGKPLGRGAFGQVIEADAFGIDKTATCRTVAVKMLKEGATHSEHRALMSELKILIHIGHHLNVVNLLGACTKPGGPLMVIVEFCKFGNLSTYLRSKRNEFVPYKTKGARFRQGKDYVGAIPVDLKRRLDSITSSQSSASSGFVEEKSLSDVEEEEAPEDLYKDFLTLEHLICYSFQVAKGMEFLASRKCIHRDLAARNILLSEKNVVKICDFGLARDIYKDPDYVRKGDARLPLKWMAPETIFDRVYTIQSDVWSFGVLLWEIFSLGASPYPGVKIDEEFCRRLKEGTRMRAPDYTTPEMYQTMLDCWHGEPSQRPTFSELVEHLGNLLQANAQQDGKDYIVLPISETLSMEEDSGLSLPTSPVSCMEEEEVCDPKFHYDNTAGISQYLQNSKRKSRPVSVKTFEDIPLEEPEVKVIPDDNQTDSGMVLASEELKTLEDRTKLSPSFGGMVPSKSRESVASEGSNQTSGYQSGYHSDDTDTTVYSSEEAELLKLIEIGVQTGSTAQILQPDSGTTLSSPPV

Row | SMILES | IC50 (recombinant Aurora A; [3]) [nM] | IC50 ([1]; 40 minutes at room temperature) [nM] | IC50 [2] [nM] | IC50 (recombinant Aurora A) [nM] | IC50 [1, 3] [nM]
1 | Cc1cc(C)cc(-c2nc(Nc3cc(C)[nH]n3)cc(N3CCN(C)CC3)n2)c1 [Example 169, 2-(3,5-dimethylphenyl)-N-(5-methyl-1H-pyrazol-3-yl)-6-(4-methylpiperazin-1-yl)pyrimidin-4-amine] | – | ≤ 100 | ≤ 100 | ≤ 100 | –
2 | COc1ccc(F)c(-c2nc(Nc3cc(C)[nH]n3)cc(N3CCN(C)CC3)n2)c1 [Example 197, 2-(2-fluoro-5-methoxyphenyl)-N-(5-methyl-1H-pyrazol-3-yl)-6-(4-methylpiperazin-1-yl)pyrimidin-4-amine] | – | ≤ 100 | ≤ 100 | ≤ 100 | –
3 | COCCN(C)c1cc(Nc2cc(C)[nH]n2)nc(-c2ccc3c(c2)OCO3)n1 [Example 153, 2-(benzo[d][1,3]dioxol-5-yl)-N^4-(2-methoxyethyl)-N^4-methyl-N^6-(5-methyl-1H-pyrazol-3-yl)pyrimidine-4,6-diamine] | – | – | ≤ 100 | ≤ 100 | ≤ 1000
4 | Cc1cc(Nc2cc(N3CCN(C)CC3)nc(-c3ccccc3Cl)n2)n[nH]1 [Compound 37, 2-(2-chlorophenyl)-N-(5-methyl-1H-pyrazol-3-yl)-6-(4-methylpiperazin-1-yl)pyrimidin-4-amine] | ≤ 1000 | ≤ 100 | ≤ 100 | – | –
5 | COc1ccc(-c2nc(Nc3cc(C)[nH]n3)cc(N3CCN(C)CC3)n2)cc1 [Compound 41, 2-(4-methoxyphenyl)-N-(5-methyl-1H-pyrazol-3-yl)-6-(4-methylpiperazin-1-yl)pyrimidin-4-amine] | – | ≤ 100 | ≤ 100 | ≤ 100 | –
6 | Cc1cc(Nc2cc(N3CCN(C)CC3)nc(-c3cccc(-c4ccccc4)c3)n2)n[nH]1 [Compound 16, 2-(biphenyl-3-yl)-N-(5-methyl-1H-pyrazol-3-yl)-6-(4-methylpiperazin-1-yl)pyrimidin-4-amine] | – | ≤ 100 | ≤ 100 | ≤ 100 | –
7 | Cc1cc(Nc2cc(N3CCN(C)CC3)nc(-c3ccc4c(c3)OC(F)(F)O4)n2)n[nH]1 [Example 178, 2-(2,2-difluorobezo[d][1,3]dioxol-5-yl)-N-(5-methyl-1H-pyrazol-3-yl)-6-(4-methylpiperazin-1-yl)pyrimidin-4-amine] | ≤ 1000 | – | ≤ 100 | – | ≤ 1000
8 | Cc1cc(Nc2cc(N3CCN(C)CC3)nc(-c3ccc4c(c3)OCCO4)n2)n[nH]1 [Example 137, 2-(2,3-dihydrobenzo[b][1,4]dioxin-6-yl)-N-(5-methyl-1H-pyrazol-3-yl)-6-(4-methylpiperazin-1-yl)pyrimidin-4-amine] | – | ≤ 100 | ≤ 100 | ≤ 100 | –
9 | Cc1cc(Nc2cc(N3CCN(C)CC3)nc(-c3cccc(C)c3C)n2)n[nH]1 [Example 179, 2-(2,3-dimethylphenyl)-N-(5-methyl-1H-pyrazol-3-yl)-6-(4-methylpiperazin-1-yl)pyrimidin-4-amine] | ≤ 1000 | ≤ 100 | ≤ 100 | – | –
10 | Cc1cc(Nc2cc(N3CCN(C)CC3)nc(-c3cccc(OC(F)(F)F)c3)n2)n[nH]1 [Example 192, N-(5-methyl-1H-pyrazol-3-yl)-6-(4-methylpiperazin-1-yl)-2-(3-(trifluoromethoxy)phenyl)pyrimidin-4-amine] | – | – | ≤ 100 | ≤ 100 | ≤ 1000

The remaining lines, values ahead:

Row | IC50 (recombinant Aurora A; [3]) [nM] | IC50 ([1]; 40 minutes at room temperature) [nM] | IC50 [2] [nM] | IC50 (recombinant Aurora A) [nM] | IC50 [1, 3] [nM] | SMILES
11 | ≤ 1000 | ≤ 100 | ≤ 100 | – | – | Cc1cc(Nc2cc(NCCN3CCN(C)CC3)nc(-c3ccccc3)n2)n[nH]1 [Compound 13, N^4-(5-methyl-1H-pyrazol-3-yl)-N^6-(2-(4-methylpiperazin-1-yl)ethyl)-2-phenylpyrimidine-4,6-diamine]
12 | – | – | ≤ 100 | ≤ 100 | ≤ 1000 | Cc1cc(Nc2cc(NC3CCOCC3)nc(-c3cc4cc(NS(=O)(=O)C5CC5)ccc4o3)n2)n[nH]1 [Example 156, N-(2-(4-(5-methyl-1H-pyrazol-3-ylamino)-6-(tetrahydro-2H-pyran-4-ylamino)pyrimidin-2-yl)benzofuran-5-yl)cyclopropanesulfonamide]
13 | – | – | ≤ 100 | ≤ 100 | ≤ 1000 | Cc1cc(Nc2cc(N3CCN(C)CC3)nc(-c3ccc(F)cc3)n2)n[nH]1 [Compound 32, 2-(4-fluorophenyl)-N-(5-methyl-1H-pyrazol-3-yl)-6-(4-methylpiperazin-1-yl)pyrimidin-4-amine]
14 | ≤ 1000 | ≤ 100 | ≤ 100 | – | – | Cc1cc(Nc2cc(N(C)CCN(C)C)nc(-c3cccc(Cl)c3)n2)n[nH]1 [Compound 49, 2-(3-chlorophenyl)-N^4-(2-(dimethylamino)ethyl)-N^4-methyl-N^6-(5-methyl-1H-pyrazol-3-yl)pyrimidine-4,6-diamine]
15 | – | ≤ 100 | ≤ 100 | ≤ 100 | – | Cc1cc(Nc2cc(N3CCN(C)CC3)nc(-c3cccc4ccccc34)n2)n[nH]1 [Example 134, N-(5-methyl-1H-pyrazol-3-yl)-6-(4-methylpiperazin-1-yl)-2-(naphthalen-1-yl)pyrimidin-4-amine]
16 | ≤ 1000 | – | ≤ 100 | – | ≤ 1000 | CCc1ccccc1-c1nc(Nc2cc(C)[nH]n2)cc(NC2CCOCC2)n1 [Example 174, 2-(2-ethylphenyl)-N^4-(5-methyl-1H-pyrazol-3-yl)-N^6-(tetrahydro-2H-pyran-4-yl)pyrimidine-4,6-diamine]
17 | ≤ 1000 | – | ≤ 100 | – | ≤ 1000 | COCCN(C)c1cc(Nc2cc(C)[nH]n2)nc(-c2cccc(Cl)c2)n1 [Compound 62, 2-(3-chlorophenyl)-N^4-(2-methoxyethyl)-N^4-methyl-N^6-(5-methyl-1H-pyrazol-3-yl)pyrimidine-4,6-diamine]
18 | – | – | ≤ 100 | ≤ 100 | ≤ 1000 | Cc1cc(Nc2cc(N3CCN(C)CC3)nc(-c3ccc(F)c(F)c3)n2)n[nH]1 [Example 168, 2-(3,4-difluorophenyl)-N-(5-methyl-1H-pyrazol-3-yl)-6-(4-methylpiperazin-1-yl)pyrimidin-4-amine]
19 | – | ≤ 100 | ≤ 100 | ≤ 100 | – | Cc1cc(Nc2cc(N3CCN(C)CC3)nc(-c3cc4cc(NS(=O)(=O)C5CC5)ccc4o3)n2)n[nH]1 [Example 155, N-(2-(4-(5-methyl-1H-pyrazol-3-ylamino)-6-(4-methylpiperazin-1-yl)pyrimidin-2-yl)benzofuran-5-yl)cyclopropanesulfonamide]
20 | ≤ 1000 | ≤ 100 | ≤ 100 | – | – | COCCN(C)c1cc(Nc2cc(C)[nH]n2)nc(-c2cc(F)ccc2F)n1 [Example 184, 2-(2,5-difluorophenyl)-N^4-(2-methoxyethyl)-N^4-methyl-N^6-(5-methyl-1H-pyrazol-3-yl)pyrimidine-4,6-diamine]
21 | – | – | ≤ 100 | ≤ 100 | ≤ 1000 | Cc1cc(Nc2cc(NC3CCOCC3)nc(-c3ccc4c(c3)OCCO4)n2)n[nH]1 [Example 130, 2-(2,3-dihydrobenzo[b][1,4]dioxin-6-yl)-N^4-(5-methyl-1H-pyrazol-3-yl)-N^6-(tetrahydro-2H-pyran-4-yl)pyrimidine-4,6-diamine]
22 | – | ≤ 100 | ≤ 100 | ≤ 100 | – | Cc1cc(Nc2cc(N3CCN(C)CC3)nc(-c3ccc4c(c3)OCO4)n2)n[nH]1 [Example 139, 2-(benzo[d][1,3]dioxol-5-yl)-N-(5-methyl-1H-pyrazol-3-yl)-6-(4-methylpiperazin-1-yl)pyrimidin-4-amine]
23 | ≤ 1000 | – | ≤ 100 | – | ≤ 1000 | Cc1cc(Nc2cc(NCCN3CCOCC3)nc(-c3cc4ccccc4n3C)n2)n[nH]1 [Compound 5, 2-(1-methyl-1H-indol-2-yl)-N^4-(5-methyl-1H-pyrazol-3-yl)-N^6-(2-morpholinoethyl)pyrimidine-4,6-diamine]
